Among the data in PMC11264596, “Auxin-mediated regulation of susceptibility to toxic metabolites, c-di-GMP levels, and phage infection in the rhizobacterium Serratia plymuthica” (mSystems, 2024) are Kd values, retold here.

A word on the Kd: it is a measure of binding affinity in units of concentration.

This experiment has as its target T1, TrpRA153 (AWY96_RS12805) (Serratia plymuthica, UniProt A0A2X4U763).
T1 construct: gene trpR
Briefly: isothermal titration calorimetry. The format is binding. For orientation: Isothermal titration calorimetry measures the heat released or taken up as one component is titrated into another.
Regarding `O=C(O)Cc1c[nH]c2ccccc12` [IAA, indole-3-acetic acid], the Kd worked out at 326 ± 30 µM.

The molecule `N[C@@H](Cc1c[nH]c2ccccc12)C(=O)O` [L-Trp] returned a dissociation constant Kd of 91 ± 3 µM.

With `O=C(O)C(=O)Cc1c[nH]c2ccccc12` [IPA, indole-3-pyruvic acid], the Kd amounted to 101 ± 7 µM.
